Results from patent US11633444B2, “Sporoderm-removed Ganoderma lucidum spore powder, granule and preparation method thereof” (ZHEJIANG SHOUXIANGU PHARMACEUTICAL COMPANY, LTD, priority 2017, dated 2023).
Structures can show the parent of a compound that is named as a salt.

Legend:
Type in all cases: in vivo
[1] = system: human gastric cancer (SGC-7901) transplanted tumor; assay: Zebrafish human gastric cancer (SGC-7901) transplanted tumor model; settings: SGC-7901, 50 μM, 2 days at 35° C., n = 10
From the text: Human gastric cancer (SGC-7901) cells were labeled with a red fluorescent dye (CM-Dil), and transplanted into zebrafish yolk sacs by microinjection, with about 200 cells being transplanted per zebrafish, so as to establish a zebrafish human gastric cancer transplanted tumor model.
(§1) Human gastric cancer (SGC-7901) cells were labeled with CM-Dil, and transplanted into 2 dpf wild type AB strain zebrafish yolk sacs by microinjection, with about 200 cells being transplanted per zebrafish, so as to establish a zebrafish human gastric cancer (SGC-7901) transplanted model; and the zebrafishes injected with the SGC-7901 cells were fed at 35° C. until 3 dpf.
(§2) Zebrafishes with better consistence in transplanted tumor cells were picked out under a microscope, randomly assigned to a 6-well plate, and were given in a water-dissolving administration manner respectively with the samples at concentrations respectively of 28, 83 and 250 μg/mL and the positive control drug cis-platinum at a concentration of 50 μM; and meanwhile a model control group was set, where there were 30 zebrafishes per well (concentration group), and the volume of each well was 5 mL. The zebrafishes in each experiment (concentration) group were continually cultured at 35° C., and after 2 days, 10 zebrafishes were randomly selected from each experiment (concentration) group to observe under a fluorescence microscope, and photographs of the 10 zebrafishes were taken and saved; and the photographs were analyzed using Nikon NIS-Elements D 3.10 Advanced image processing software to calculate the fluorescence intensities of cancer cells. The inhibitory effects of samples on the zebrafish gastric cancer (SGC-7901) transplanted tumor were respectively evaluated with the fluorescence intensities, and the tumor inhibition effect was calculated using the following equation. […]

[2] = system: human lung adenocarcinoma (A549) transplanted tumor; assay: Zebrafish human lung adenocarcinoma (A549) transplanted tumor model; settings: A549, 50 μM, 2 days at 35° C., n = 10
From the text: Human lung adenocarcinoma (A549) cells were labeled with a red fluorescent dye (CM-Dil), and transplanted into zebrafish yolk sacs by microinjection, with about 200 cells being transplanted per zebrafish, so as to establish a zebrafish human lung adenocarcinoma transplanted tumor model.
as §1, with “lung adenocarcinoma (A549)” for “gastric cancer (SGC-7901)”, “A549” for “SGC-7901”
as §2, with “inhibitory effect” for “inhibitory effects”, “of the sample” for “of samples”, “zebrafish lung adenocarcinoma (A549)” for “zebrafish gastric cancer (SGC-7901)”, “tumor was” for “tumor were respectively”

[3] = system: human lymphatic cancer (Ramos) transplanted tumor; assay: Zebrafish human lymphatic cancer (Ramos) transplanted tumor model; settings: 2 days at 35° C.; for Pixel of Sum of Fluorescence Intensities (mean ± SE): 5 μM
From the text: Human lymphatic cancer (Ramos) cells were labeled with a red fluorescent dye (CM-Dil), and transplanted into zebrafish yolk sacs by microinjection, with about 200 cells being transplanted per zebrafish, so as to establish a zebrafish human lymphatic cancer transplanted tumor model.
Human lymphatic cancer (Ramos) cells were labeled with CM-Dil, and transplanted into 2 dpf wild type AB strain zebrafish yolk sacs by microinjection, with about 200 cells being transplanted per zebrafish, so as to establish a zebrafish human lymphatic cancer transplanted model; and the zebrafishes injected with the human lymphatic cancer cells were fed at 35° C. until 3 dpf.
Zebrafishes with better consistence in transplanted tumor cells were picked out under a microscope, randomly assigned to a 6-well plate, and were given in a water-dissolving administration manner respectively with the samples at concentrations respectively of 28, 83 and 250 μg/mL and the positive control drug vincristine at a concentration of 5 μM; and meanwhile a model control group was set, where there were 30 zebrafishes per well (concentration group), and the volume of each well was 5 mL. The zebrafishes in each experiment group were continually cultured at 35° C., and after 2 days, 10 zebrafishes were randomly selected from each experiment group to observe under a fluorescence microscope, and photographs of the 10 zebrafishes were taken and saved; and the photographs were analyzed using Nikon NIS-Elements D 3.10 Advanced image processing software to calculate the fluorescence intensities of cancer cells. The inhibitory effect of the sample on the zebrafish lymphatic cancer (Ramos) transplanted tumor was evaluated with the fluorescence intensities, and the tumor inhibition effect was calculated using the following equation.
A concentration-effect curve was drawn according to a growth inhibition effect on the transplanted tumor; statistical analysis was performed by variance analysis and Dunnett's T-test, where p<0.05 was considered as a significant difference; such that a representative experimental map was provided.

| SMILES | Inhibition Effect [1] | Pixel of Sum of Fluorescence Intensities (mean ± SE) [1] | Pixel of Sum of Fluorescence Intensities (mean ± SE) ([1]; listed as cis-platinum) | Inhibition Effect [2] | Pixel of Sum of Fluorescence Intensities (mean ± SE) [2] | Pixel of Sum of Fluorescence Intensities (mean ± SE) ([2]; listed as cis-platinum) | Pixel of Sum of Fluorescence Intensities (mean ± SE) ([3]; n = 10) | Pixel of Sum of Fluorescence Intensities (mean ± SE) ([3]; n = 10, listed as vincristine) | inhibition at 5 µM ([3]; Danio rerio, 48 h, n = 10, read-out: Inhibition Effect) |
| --- | --- | --- | --- | --- | --- | --- | --- | --- | --- |
| N.N.[Cl][Pt][Cl] [Cis-platinum] | 36% | 237655 ± 12361 pixels | 237,655 pixels | 32% | 137287 ± 7835 pixels | 137,287 pixels |  |  |  |
| CC[C@]1(O)C[C@H]2CN(CCc3c([nH]c4ccccc34)[C@@](C(=O)OC)(c3cc4c(cc3OC)N(C=O)[C@H]3[C@@](O)(C(=O)OC)[C@H](OC(C)=O)[C@]5(CC)C=CCN6CC[C@]43[C@@H]65)C2)C1 [Vincristine, Vincristine sulfate] |  |  |  |  |  |  | 153919 ± 13691 pixels | 153,919 pixels | 33% |
